Results: ChEMBL document CHEMBL5096183, “Contemporary advances of cyclic molecules proposed for inflammation” (Eur J Med Chem, 2021)
Values after ≈ are worked out from the molar mass of the structure shown.

Legend:
Rattus norvegicus [1] = test: Anti-inflammatory activity against carrageenan-induced paw edema in po dosed Wistar rat pretreated for 1 hrs followed by carrageenan addition measured after 3 hrs; assay type: functional; conditions: time 4 hrs
Rattus norvegicus [2] = test: Anti-inflammatory activity against carrageenan-induced paw edema in Albino rat assessed as percentage of protection at 50 mg/kg,po pretreated for 1 hrs followed by carrageenan addition measured after 4 hrs by plethysmography method relative to control; assay type: functional; conditions: time 5 hrs
Rattus norvegicus [3] = test: Acute anti-inflammatory activity against carrageenan induced paw edema in Albino rat at 20 mg/kg, po pretreated for 30 mins followed by carrageenan addition measured every hour for 3 hrs by plethysmography method relative to control; assay type: functional; conditions: time 3.5 hrs
Rattus norvegicus [4] = test: Anti-inflammatory activity against Cotton pellets induced granuloma in Albino rat at 20 mg/kg, po administered for 7 days measured on day 8 by measuring pellet weight relative to control; assay type: functional; conditions: time 8 day
Rattus norvegicus [5] = test: Anti-inflammatory activity against carrageenan-induced paw edema in Wistar albino rat model assessed as inhibition of paw edema at 20 mg/kg, PO relative to control; assay type: functional
Mus musculus [6] = test: Anti-inflammatory activity against Carrageenan-induced paw edema in Swiss albino mouse assessed as change in paw volume at 10 mg/kg, PO measured after 6 hrs by plethysmometric analysis relative to control; assay type: functional
Mus musculus [7] = test: Analgesic activity in albino […] mouse assessed as increase in reaction on paw licking at 100 mg/kg, po pretreated for 1 hrs followed by hot plate treatment measured after 90 mins by analgesiometer based analysis relative to control; assay type: functional; conditions: time 2.5 hrs
[8] = Acute toxicity in PO dosed Wistar albino rat measured for 14 days; assay type: organism-based; conditions: in vivo, time 14 day
Rattus norvegicus [9] = test: Anti-inflammatory activity against formalin-induced foot paw edema in Wistar rat assessed as oedema inhibition at 10 mg/kg,po measured after 1 hrs by plethysmometric analysis relative to control; assay type: functional
Rattus norvegicus [10] = test: Anti-inflammatory activity against formalin-induced foot paw edema in Wistar rat assessed as oedema inhibition at 10 mg/kg,po measured after 3 hrs by plethysmometric analysis relative to control; assay type: functional
Rattus norvegicus [11] = test: Anti-inflammatory activity against formalin-induced foot paw edema in Wistar rat assessed as oedema inhibition at 10 mg/kg,po measured after 6 hrs by plethysmometric analysis relative to control; assay type: functional
Rattus norvegicus [12] = test: Anti-inflammatory activity against carrageenan-induced paw edema in Wistar rat at 20 mg/kg, po assessed as paw edema volume measured after 4 hrs by plethysmometric analysis relative to control; assay type: functional
Rattus norvegicus [13] = test: Acute ulcerogenic activity in 18 hrs fasted Wistar rat at 60 mg/kg, po treated for 6 hrs relative to control; assay type: functional
Rattus norvegicus [14] = test: Antiulcer activity against ulceration induced albino Wistar rat assessed as ulcerogenic index pretreated daily at 25 mg/kg for 4 days followed by 24 hrs fasting prior to pylorus ligation measured after 4 hrs; assay type: functional; conditions: time 124 hrs
Rattus norvegicus [15] = test: Anti-inflammatory activity against carrageenan-induced paw oedema in 12 hrs fasted Albino rat assessed as inhibition of oedema formation administered intraperitoneally measured after 3 hrs relative to control; assay type: functional; conditions: route ip
[16] = Ulcerogenic activity in 12 hrs fasted Albino rat assessed as ulcerogenic index at […] per day, po for 3 days; assay type: toxicity, organism-based; conditions: in vivo, 72 h, time 3 day
Erythrocyte = test: Anti-inflammatory against heat induced human red blood cells assessed as inhibition of heat induced hemolysis by measuring membrane stabilization for at 100 ug/ml incubated for 30 mins relative to control; assay type: functional; conditions: 0.5 h
Homo sapiens = organism: Homo sapiens; test: Inhibition of proteinase (unknown origin) at 100 ug/ml using casein as substrate preincubated for 5 mins followed by addition of substrate for 20 mins relative to control; conditions: dose 100.0 µg/ml
Rattus norvegicus [17] = test: Anti-inflammatory activity against Carrageenan-induced paw edema in Wistar rat at 5 mg/kg, po pretreated for 30 mins followed by carrageenan addition after 4 hrs by Plethysmometric analysis relative to control; assay type: functional; conditions: time 4.5 hrs
Rattus norvegicus [18] = test: Anti-inflammatory activity against carrageenan induced paw edema in rat assessed as inhibition of paw edema at 12.5 mg/kg,PO pretreated for 1 hrs followed by carrageenan addition for 4 hrs by plethysmographic analysis relative to control; assay type: functional; conditions: time 5 hrs
[19] = biological target: T1, Seed linoleate 13S-lipoxygenase-1 (Glycine max, UniProt P08170); test: Inhibition of soybean LOX-1 using linoleic acid as substrate measured for 3 mins
T1 sequence (P08170 whole entry): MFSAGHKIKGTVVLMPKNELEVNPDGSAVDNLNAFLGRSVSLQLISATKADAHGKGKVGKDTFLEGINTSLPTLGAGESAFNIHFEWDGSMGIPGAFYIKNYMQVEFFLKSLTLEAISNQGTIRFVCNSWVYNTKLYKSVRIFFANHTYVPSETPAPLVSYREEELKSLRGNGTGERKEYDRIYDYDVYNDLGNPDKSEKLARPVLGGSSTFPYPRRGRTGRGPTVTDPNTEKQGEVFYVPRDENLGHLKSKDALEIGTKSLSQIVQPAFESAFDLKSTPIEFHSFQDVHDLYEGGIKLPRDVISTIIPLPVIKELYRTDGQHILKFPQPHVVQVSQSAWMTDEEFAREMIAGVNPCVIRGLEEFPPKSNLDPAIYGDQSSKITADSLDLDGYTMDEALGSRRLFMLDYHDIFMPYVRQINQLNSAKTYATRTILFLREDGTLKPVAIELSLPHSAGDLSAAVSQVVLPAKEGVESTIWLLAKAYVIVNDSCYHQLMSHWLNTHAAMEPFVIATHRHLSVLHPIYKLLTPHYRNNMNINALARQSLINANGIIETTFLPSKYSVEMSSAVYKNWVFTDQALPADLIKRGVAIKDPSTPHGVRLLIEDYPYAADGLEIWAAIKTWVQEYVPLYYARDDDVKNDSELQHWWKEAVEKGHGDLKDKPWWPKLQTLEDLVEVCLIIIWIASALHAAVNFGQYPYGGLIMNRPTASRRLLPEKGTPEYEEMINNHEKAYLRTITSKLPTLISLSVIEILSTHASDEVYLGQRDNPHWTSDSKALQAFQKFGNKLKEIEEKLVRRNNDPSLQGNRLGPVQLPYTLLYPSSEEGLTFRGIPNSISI

[20] = Antioxidant activity assessed as DPPH radical scavenging activity incubated for 20 mins by UV spectrometric analysis; assay type: functional
[21] = biological target: T2, Seed linoleate 13S-lipoxygenase-1 (Glycine max) (UniProt P08170); test: Binding affinity to soybean LOX-1 assessed as quenching ability by fluorescence based assay relative to control
T2 sequence (whole entry): T1 sequence (P08170 whole entry)

## O=C(O)CC(O)(c1ccccc1)c1ccccc1
Rattus norvegicus [1]
  ED50: 15 µmol/kg

## CCc1nnc(-c2cc3cc([N+](=O)[O-])ccc3o2)o1
Rattus norvegicus [2]
  Activity: 72%

## CN(C)CCC(=O)Nc1ccc2oc(Cc3ccc(Cl)cc3)nc2c1
Rattus norvegicus [3]
  Activity: 72%
Rattus norvegicus [4]
  Activity: 48.4%

## COc1cc(Cc2nc3cc(NC(=O)c4ccc(Cl)cc4)ccc3o2)cc(OC)c1OC
Rattus norvegicus [5]
  inhibition in vivo at 20 mg/kg: 79.5%

## COc1ccc(/C=C/C(=O)c2ccc(F)cc2O)cc1
Mus musculus [6]
  Activity: 54%

## Cc1ccc(-c2nnc(CCC(=O)N/N=C3\C(=O)Nc4ccccc43)o2)cc1
Mus musculus [7]
  Activity: 83.17%

## O=C(Cc1cn(-c2ccccc2)nc1O)Nc1ccccc1-c1cc(-c2ccc(Br)cc2)n(-c2ccccc2)n1
[8]
  LD50 at 336 h: 2000 mg/kg

## O=C(CCc1nnc(-c2ccc(O)cc2)o1)N/N=C1\C(=O)Nc2ccccc21
Mus musculus [7]
  Activity: 84.11%

## C/C(=N/Nc1ccc(C(=O)O)cc1)c1cccc(N2C(=O)c3ccccc3C2=O)c1
Rattus norvegicus [9]
  inhibition in vivo at 10 mg/kg: 29.2%
Rattus norvegicus [10]
  inhibition in vivo at 10 mg/kg: 22.2%
Rattus norvegicus [11]
  inhibition in vivo at 10 mg/kg: 29.2%

## COc1ccccc1OC(=O)c1cc(OC)c(OC)c(OC)c1
Rattus norvegicus [12]
  inhibition in vivo at 20 mg/kg: 77.1%

## O=C([O-])Cc1ccccc1Nc1c(Cl)cccc1Cl.[Na+] [DICLOFENAC SODIUM]
Rattus norvegicus [4]
  Activity: 60.2%
Rattus norvegicus [13]
  Activity: 64.7%
Rattus norvegicus [14]
  Activity: 4.67

## Cc1ccc(S(=O)(=O)N2CC(O)CC2C(=O)Nc2nc3ccccc3s2)cc1 (centres undefined)
Rattus norvegicus [15]
  inhibition (INH): 78%
[16]
  Activity_index: 0.89

## Clc1cc(Cl)c2cccc(-c3nc4ccccc4o3)c2n1
Erythrocyte
  inhibition at 100 µg/mL: 80.2%
Homo sapiens
  inhibition: 85.3%

## O=C(Nc1nc2ccccc2s1)C(Cc1cc2ccccc2[nH]1)N(C(=O)c1ccccc1)S(=O)(=O)c1ccc([N+](=O)[O-])cc1 (centres undefined)
Rattus norvegicus [15]
  inhibition (INH): 80%
[16]
  Activity_index: 0.82

## COc1ccc(C2CC(c3ccc(F)cc3O)=NN2)cc1 (centres undefined)
Mus musculus [6]
  Activity: 54%

## COc1ccc(-c2cc(-c3ccccc3)nn2CC(=O)Nc2ccc(S(N)(=O)=O)cc2)cc1
Rattus norvegicus [17]
  inhibition in vivo at 5 mg/kg: 81%

## CCOC(=O)c1cc(N)n(C(=O)c2csc(-c3ccccc3)n2)n1
Rattus norvegicus [14]
  Activity: 0.44

## Cc1ccc(N(O)/N=N/c2ccc(S(=O)(=O)Nc3nc(C)cc(C)n3)cc2)cc1
Rattus norvegicus [18]
  inhibition in vivo at 12.5 mg/kg: 97.1%

## COCc1nc2ccc3occc3c2o1
[19]
  IC50: 65.4 µM
[20]
  IC50: 360 µg/mL (≈ 1770 µM)
[21]
  Qmax: 76.3%
